Assay results reported in patent US8673585B2, “Biochemical serum marker” (Biouniversa S.r.l., priority 2009, dated 2014).

Key:
J774 cells [1] = test: Binding of FITC-conjugated recombinant BAG3 to the cell surface (confocal microscopy); type: cell-based, murine; details: FITC-conjugated protein added to the culture medium for 1 hour
Description: The BAG3 recombinant protein was then conjugated to FITC using the FluoroTag FITC Conjugation Kit (Sigma). Equal amounts of BSA-FITC (negative control) and rBAG3-FITC were added to the culture medium for 1 hour. Cells were then fixed with a solution of 3.7% formaldehyde and analyzed by a Zeiss LSM confocal microscope.
Binding of the BAG3 protein to the surface of J774 cells was confirmed by use of the recombinant protein conjugated with a fluorophore. BAG3 binding is specific because it is not observed when other proteins, for example BSA, are used instead of BAG3.

J774 cells [2] = test: Macrophage activation assay: production of nitrites in the culture medium (Griess reagent); type: cell-based, murine
Description: The recombinant BAG3 protein was used for macrophage activation assays, in order to determine the possible role on blood cells of the protein released in the serum. For this purpose, the murine monocyte J774 cell line was treated with different concentrations of the recombinant BAG3 protein, using a pro-inflammatory agent such as lipopolysaccharide (LPS) as a positive control. J774 cells were plated at 60% confluence and incubated for 24 h with the recombinant BAG3 protein at concentrations of 250, 500 ng/ml and 1 mg/ml, alone or in combination with LPS at a concentration of 10 ng/ml.
Moreover the production of nitrites in the culture medium, which correlates with monocyte activation, was verified with the Griess reagent (1% sulfanilamide, 0.1% naftilethylenediamine, 5% phosphoric acid) and measured in a Beckman DU-62 spectrophotometer at 550 nM (FIG. 9b).

bovine serum albumin [BSA, reference compound]
binding to the surface of J774 cells (J774 cells [1]): not observed

recombinant BAG3 protein: Recombinant human BAG3 protein expressed in E. coli, His-tagged, purified by affinity chromatography; FITC-conjugated for the binding test
production of nitrites compared to the control (untreated cells) (J774 cells [2]; 24 h, 500 ng/ml, p<0.001, FIG. 9b): increased three-fold | dose dependence of activity (iNOS expression and nitrites) (J774 cells [2]; 24 h, 250, 500 ng/ml and 1 mg/ml, FIGS. 9a and b): dose-dependent | binding to the surface of J774 cells (J774 cells [1]): confirmed
